The text below walks through data of PubChem BioAssay (NCI).

The structures appear in SMILES notation.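 Test compounds were applied to cells in 96-well plates for 48 hours at 5 doses. TGI denotes the concentration required for complete inhibition of growth.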

What all share (assay): NCI-60 cell line screen, 48 h
In assay [1] the test system is CAKI-1 renal.
Assay [2] concerns LOX IMVI melanoma.
The subject of assay [3] is EKVX NSCLC.
Assay [4] deals with SF-295 CNS.
Assay [5] has as its system HL-60(TB) leukemia.
Assay [6] has as its system OVCAR-8 ovarian.
The test system of assay [7] is SW-620 colon.
Assay [8] relates to A549 NSCLC.
Assay [9] concerns NCI-H226 lung.
In assay [10] the test system is SK-MEL-2 melanoma.
For assay [11], the system named is HCC-2998 colon.
Assay [12] deals with MALME-3M melanoma.
In assay [13] the test system is OVCAR-4 ovarian.
In assay [14] the test system is NCI-H460 lung.
For assay [15], the system named is SK-MEL-5 melanoma.
The test system of assay [16] is UACC-62 melanoma.
In assay [17] the test system is NCI-H23 lung.
Assay [18] deals with RXF 393 renal.
The test system of assay [19] is CCRF-CEM leukemia.
The subject of assay [20] is SN12C renal.

As to `O=C(N/N=C/c1cc(Br)cc(Br)c1[O-])c1ccccc1O.O=C(N/N=C/c1cc(Br)cc(Br)c1[O-])c1ccccc1O.[Co+2]`, the TGI in assay [1] came out at 5.93 µM; in [2], 12.9 µM; in assay [3], 11.3 µM; in assay [4], 12.6 µM; in assay [5], 0.906 µM; in assay [6], 12.5 µM. Also, the TGI worked out at 17.2 µM in assay [7]; 12.6 µM in [8]; 7.39 µM in assay [9]; 5.4 µM in [10]; 10.5 µM in assay [11]; 18.5 µM in assay [12]. Also, the TGI came out at 3.15 µM in assay [13]; 20 µM in [14]; 2.96 µM in assay [15]; 1.78 µM in [16]; 7.57 µM in [17]; 10.5 µM in assay [18].

As for `O=c1oc2cc(O)ccc2c(O)c1Cc1c(O)c2ccc(O)cc2oc1=O`, the TGI in [1], in assay [2], in [3], in [4], in [5] and in [6] was above 100 µM in each case. Besides, the TGI in [7], in assay [19], in assay [8], in [9], in assay [10] and in [11] was above 100 µM each time. The TGI in [12], in assay [13], in [14], in assay [15], in assay [16] and in assay [20] was above 100 µM each time. The TGI in assay [17] and in assay [18] was above 100 µM throughout.

For `CN(Cc1cnc2c(N)nc(N)nc2n1)c1ccc(Cl)cc1`, the TGI in assay [1], in assay [3], in [4], in [5], in assay [6] and in [7] was above 100 µM each time. Further, the TGI is above 100 µM in assay [19]; 32.5 µM in [9]; above 100 µM in assay [10]; above 100 µM in assay [12]; above 100 µM in assay [14]; above 100 µM in [15]. Moreover, the TGI in assay [16] is above 100 µM; in assay [20] it was above 100 µM; in [17], above 100 µM; in [18] it was 61.5 µM.

For `C[C@@H]1CC[C@@]2(OC1)O[C@H]1C[C@H]3[C@@H]4CC[C@H]5C[C@@H](OC6OC(CO)C(OC7OC(CO)C(O)C(OC8OCC(O)C(O)C8O)C7OC7OC(CO)C(O)C(O)C7O)C(O)C6O)[C@H](O)C[C@]5(C)[C@H]4CC[C@]3(C)[C@H]1[C@@H]2C` (some centres undefined), the TGI in assay [1] is 12.5 µM; in [2], 7.89 µM; in assay [3] it was 21 µM; in assay [4], 13.4 µM; in assay [5], 9.54 µM; in assay [6] it was 9.64 µM. Also, the TGI in assay [7] amounted to 21 µM; in assay [19] it was 1.53 µM; in assay [8] it was 10.9 µM; in assay [9], 23.9 µM; in [10], 24.8 µM; in assay [11] it was 24.7 µM. Moreover, the TGI in assay [12] is 30.8 µM; in assay [13], 4.62 µM; in [14], 4.17 µM; in [15], 45.8 µM; in [16], 47.3 µM; in assay [17], 7.39 µM. In assay [18], this molecule yielded a TGI of 27.1 µM.

Take `CCn1cnnc1-c1nsc2ccccc12`: the TGI in [2], in assay [3], in [5], in [6], in assay [7] and in assay [19] was above 100 µM in each case. Further, the TGI in assay [8], in [10], in assay [11], in assay [13], in assay [14] and in assay [15] was above 100 µM throughout. Further, the TGI in [16], in assay [20], in [17] and in assay [18] was above 100 µM throughout.

As for `O=c1cc(-c2ccccc2)[nH]c2nccn12`, the TGI in [1], in [2], in [3], in [4], in assay [5] and in assay [6] was above 10 µM in each case. The TGI in assay [7], in assay [19], in assay [8], in assay [9], in assay [10] and in [11] was above 10 µM each time. Besides, the TGI in [12], in [13], in [14], in [15], in assay [16] and in [20] was above 10 µM in each case. For the same molecule, the TGI in assay [17] and in assay [18] was above 10 µM in each case.

For `CC1=CC2c3cccc4[nH]cc(c34)CC2N(C)C1` (centres undefined), the TGI in assay [1], in assay [2], in [3], in [4], in [5] and in [6] was above 100 µM throughout. Also, the TGI is above 100 µM in assay [7]; above 100 µM in assay [19]; above 100 µM in assay [8]; above 100 µM in assay [9]; above 100 µM in [10]; 86 µM in [11]. Besides, the TGI in assay [12], in [13], in assay [14], in assay [15], in assay [16] and in assay [20] was above 100 µM in each case. Also, the TGI in assay [17] and in [18] was above 100 µM each time.
